Holding throughout (assay type): cell-based
Experiment [1] has as its system normal human mammary epithelial cells. Description: SU-ECM invasion assay, normal mammary epithelial cells. The note with it: SU-ECM, serum containing environment; Figure 12. As to the method: Adult Strongylocentrotus purpuratus sea urchins were obtained from Pacific BioMarine, and their embryos were cultured to the early pluteus stage in artificial sea water at 15°C. SU-ECM were prepared from them by treatment with nonionic detergent and sterilized by dilution in the appropriate media.
[…] When appropriate, purified bovine plasma fibronectin (Sigma, St. Louis, Mo), purified 120 kDa chymotryptic fragment (Gibco BRL), PHSRN or PHSCN peptides (synthesized at the Biomedical Research Core Facilities of the University of Michigan), or GRGDSP or GRGESP peptides (Gibco BRL) were added to the resuspended cells prior to placement of the cells on SU-ECM. In each well of a plate used for an invasion assay, SU-ECM were placed in 0.5 ml of the appropriate medium, and 0.5ml of the resuspended cells dropped on their exterior surfaces. Invasion assays were incubated 1 to 16 hours prior to scoring. If some circumstances, invasion assays were fixed in phosphate-buffered saline (PBS) with 2% formaldehyde for 5 minutes at room temperature, then rinsed into PBS.
Invasion assays were coded and scored blindly by microscopic examination under phase contrast at 200- and 400-fold magnification. Each cell contacting an SU-ECM was scored for its position relative to the exterior or interior surfaces. A cell was judged to have invaded if it was located on an interior surface below the focal plane passing through the upper surface of the SU-ECM, but above the focal plane passing through its lower surface. The minimum viability of the cells in each assay was always ascertained at the time of assay by determining the fraction of spread, adherent cells on the bottom of each well scored.
An invasion frequency is defined as the fraction of cells in contact with basement membranes which were located in their interiors at the time of assay. […] Invasion frequencies were determined multiple times for each cell type assayed. For each type of cell assayed the mean and standard deviation of the invasion frequencies were calculated. […]

Experiment [2] deals with Mouse muscle satellite cells. Description: SU-ECM invasion assay, muscle satellite cells. The note with it: 1 microgram per ml, presence or absence of serum; Figure 13. The text has this:
In one example cells for the invasion assay are harvested by rinsing in Hanks' balanced salt solution, followed by brief treatment with 0.25% trypsin, 0.02% EDTA, and pelleting and resuspension in the appropriate medium with or without 5% FCS at a density of about 50,000 cells per ml. When appropriate, purified bovine plasma fibronectin (from Sigma, St. Louis, Mo), purified 120 kDa chymotryptic fragment (Gibco BRL) or PHSRN peptides (synthesized at the Biomedical Research Core Facilities of the University of Michigan) are added to the resuspended cells prior to placement of the cells on SU-ECM. […]
Invasion assays are coded and scored blindly by microscopic examination under phase contrast at 200- and 400-fold magnification. Each cell contacting an SU-ECM is scored for its position relative to the exterior or interior surfaces. […] The minimum viability of the cells in each assay is always ascertained at the time of assay by determining the fraction of spread, adherent cells on the bottom of each well scored.
An invasion frequency is defined as the fraction of cells in contact with basement membranes which are located in their interiors at the time of assay. […] Invasion frequencies are determined multiple times for each cell type assayed. For each type of cell assayed the mean and standard deviation of the invasion frequencies were calculated. […]

The test system of experiment [3] is normal, neonatal fibroblasts. In words: Invasion of fibronectin-depleted Matrigel by fibroblasts. The note with it: gelatin plus antibody panned Matrigel; Figure 2. As for the experimental part: Anti-fibronectin antibody-coated wells: Wells of a 24-well plate were coated with an anti-fibronectin antibody. A mouse monoclonal antibody to human fibronectin was obtained from Oncogene Science (Catalog #CP13). Each well was incubated with 1 ml of antibody at a concentration of […] for 2 hours at room temperature. Each well was then incubated with a solution of 3% BSA in PBS for 2 hours at room temperature. Following the two incubation periods, the wells were thoroughly washed with PBS and stored at -20 °C until use.
Depleting Matrigel of Fibronectin: Matrigel was panned over eight gelatin-coated wells (as described above in Example 2) to remove most of the fibronectin and its fragments. Thereafter, the Matrigel was placed in the antibody-coated wells to remove any remaining fragments of fibronectin which contain the cell-binding domain but not the gelatin-binding domain. The Matrigel was incubated in an ice bucket on an orbital shaker at 4 °C for 2 hours. Once the Matrigel was depleted, it was collected in Eppendorf tubes. The fibronectin-depleted Matrigel was plated on a 48-well plate (150 µl/well), sterilized under a UV light for 10 minutes and incubated at 37 °C overnight. The Matrigel formed a gel and the following day, cells were added to the wells. […]

The text below walks through data of patent publication EP1388013B1, “COMPOSITIONS AND METHODS FOR THE USE OF FIBRONECTIN FRAGMENTS IN THE DIAGNOSIS OF CANCER” (THE REGENTS OF THE UNIVERSITY OF MICHIGAN, priority 2001, dated 2002).

No end group written: not given here.

For PHSRN [PHSRN], the “induction of invasive behavior of human mammary epithelial cells” value in experiment [1] was “induces the invasive behaviors”. Besides, the “induction of SU-ECM invasion by muscle satellite cells” value in experiment [2] is listed as “induced the invasion”. Moreover, the “induction of fibroblast invasiveness on fibronectin-depleted Matrigel” value in experiment [3] was “could be induced”.
